Reference: patent US11668709B2, “System for monitoring post-translational modification of protein using bio-sensor with gap and manufacturing method for bio-sensor” (KOREA INSTITUTE OF SCIENCE AND TECHNOLOGY, priority 2018, dated 2023)

Columns and labels:
Assay type in all cases: biochemical
O-GlcNAcase [1] = assay: Verification Experiment 6: impedance of tau protein with second or third antibody, with and without thiamet G; conditions: 5 pg/ml tau protein
Method: (§1) Tau protein at a concentration of 5250 ng/mL was diluted 1/10 at various concentrations (0.5 fg/mL to 50 pg/mL) with 0.1% PBST and treated with Thiamet G treatment inhibiting O-GlcNAcase or BZX2 promoting O-GlcNAcase as needed.
(§2) The impedance Z was measured with and without the substance that inhibits O-GlcNAcase, using the system for monitoring post-translational modification of protein according to the embodiment of the present disclosure.
(a) 5 pg/ml of tau protein, (b) 5 pg/ml of tau protein+second antibody (AT-8 antibody), and (c) 5 pg/ml of tau protein+third antibody (O-g Antibody) were introduced into the sensor 100, respectively, and then impedance Z was measured for PBS, Neg, Thiamet G untreated, and 100 μM of thiamet G treated samples, respectively.

O-GlcNAcase [2] = assay: Verification Experiment 4: impedance with and without O-GlcNAcase inhibitor, third antibody (O-g Antibody); conditions: 100 μM thiamet G treated compared to untreated; tau protein 0.5-524 fg/ml; O-glycosylation site antibody
Method: as §1, §2

O-GlcNAcase [3] = assay: Verification Experiment 5: impedance with O-GlcNAcase inhibitor or promoter, second antibody (AT-8 antibody); conditions: 100 μM BZX2 treated; tau protein 0.5-500 fg/ml; AT-8 phosphorylation site antibody
Method: as §1
The impedance Z was measured for when treated with a substance that inhibits O-GlcNAcase; and when treated with a substance that promotes O-GlcNAcase of O-glycosylated tau protein, using the system for monitoring post-translational modification of protein according to the embodiment of the present disclosure.
A sample containing the second conjugate S2 (microbead+first antibody+tau protein) and an antibody (second antibody, AT-8 antibody) that can bind to the phosphorylation site of tau protein was introduced into the sensor 100, and impedance Z was measured for each of the following: (a) treated with 100 μM of thiamet G which is a substance that inhibits O-GlcNAcase; and (b) treated with 100 μM of BZX2 which is substance that promotes O-GloNAcase, for respective concentrations (0.5 fg/ml, 5 fg/ml, 50 fg/ml, and 500 fg/ml) of tau protein.
The impedance Z was measured from each sample when the first sample containing the second conjugate S2 was introduced into the sensor 100 and when the second sample containing the third conjugate S3 was introduced into the sensor 100.

Row | Compound | impedance Z2 measured as the second antibody (AT-8 antibody) was added (O-GlcNAcase [1]; 100 μM thiamet G treated (untreated 33.65 MΩ)) [MΩ] | impedance Z3 measured as the third antibody (O-g antibody) was added (O-GlcNAcase [1]; 100 μM thiamet G treated (untreated 38.27 MΩ)) [MΩ] | difference in impedance (Z1−Z3) (O-GlcNAcase [2]) | impedance difference (Z1−Z2) (O-GlcNAcase [3])
1 | CCN=C1N[C@@H]2[C@@H](O)[C@H](O)[C@@H](CO)O[C@@H]2S1 [thiamet G] | 37.65 | 35.0 | greater | –
2 | BZX2 | – | – | – | increases as the concentration of tau protein increases
